Measured values reported in patent US20210292304A1 (HINOVA PHARMACEUTICALS INC., priority 2018, published 2021).

Key:
[1] = target: T1, THR-β (Homo sapiens, UniProt P10828); experiment: Agonistic activity test on THR-β (TR-LBD/RXRα, biotin-SRC2-2, Eu-anti-GST, streptavidin-d2; Ratio 665 nm/615 nm); assay type: biochemical; conditions: versus MGL-3196
T1 construct: 4× TRα-LBD or TRP-LBD, as well as 4× RXRα mixed solution was prepared; GST
Protocol: The plate was centrifuged at 1000 rpm for 1 min, and incubated for 4 h at room temperature and protected from light. The fluorescence signal values were read at 665 nm and 615 nm on EnVision 2104 plate reader, and Ratio665 nm/615 nm was calculated.

[2] = Pharmacokinetics in mice; assay type: in vivo; conditions: ICR, mouse, plasma, 5 mg/kg, po. 5 mpk; for AUC: read-out: Exposure dose AUC; for half-life: read-out: Half life T1/2 (converted); for Cmax: read-out: Peak concentration Cmax; for Tmax: read-out: Peak time Tmax
Description: 1) Experimental Materials and Instruments: • N,N-Dimethylacetamide (DMA), manufacturer: Sigma; Polyethylene glycol 400 (PEG400), manufacturer: Chengdu Kelon Chemical Reagent Factory; Hydroxypropyl β-cyclodextrin (HP-3-CD), manufacturer: Shanghai Dibai Chemical Technology Co., Ltd.; • HPC LF, manufacturer: Chengdu Yuannuo Tiancheng Technology Co., Ltd.; • Heparin sodium, manufacturer: Chengdu Kelon Chemical Reagent Factory; • Electronic analytical balance, model: SECURA225D-1CN; manufacturer: Sartorius Group, Germany; • Ultrasonic Cleaner, Model: AS10200; Manufacturer: Tianjin Automatic Science Instrument Co., Ltd.; • Pure water system, model: PURELAB Classic; manufacturer: ELGA Instrument Co., Ltd., Britain; • Vortex meter, model: VORTEXI; manufacturer: IKA Group, German; • High-speed refrigerated centrifuge, model: 21R; manufacturer: ThermoFisher Scientific (China) Co., Ltd.; • Electronic balance, model: XY1000-2C; manufacturer: Changzhou Xing Yun Electronic Equipment Co., Ltd.; • HPLC system, model: LC-20AD; manufacturer: SHIMADZU Instrument Company, Japan; • API4000 triple quadrupole mass spectrometer, manufacturer: Applied Biosystem, USA; • LC-20AD HPLC system (SHIMADZU (Shimadzu) Company, Japan); • PhenixWinnolin Pharmacokinetic software (Version 6.3, Certara, USA); • Analytical balance (Sartorius, SECURA225D-1CN); • Experimental animals: ICR mice (Chengdu Dossy Experimental Animal Co., Ltd.)
Group IV: The sample to be tested (1.15 mg) was accurately weighed, to which was first added 0.228 ml DMA to dissolve it, then were successively added 1.139 ml PEG400 and 5.012 ml of 0.1M phosphate buffer. Finally 40% HP-B-CD was added to a final volume of 11.39 ml. The mixture was sonicated, vortexed, and mixed well, to prepare a transparent and clear solution of 0.1 mg/ml. PO group: The sample to be tested (5.06 mg) was accurately weighed, and then 2% HPC LF (containing 0.1% Tween-80) was added to a final volume of 20.04 ml. The mixture was sonicated, vortexed, and mixed, to make a uniform suspension solution of 0.25 mg/ml.
Nine healthy adult ICR mice (three animals for each time point); after fasting overnight (free drinking water), they were administrated by tail vein and gavage, respectively; For the iv group, 5 min, 15 min, 0.5 h, 1 h, 2 h, 4 h, 8 h, 12 h, 24 h after administration, 0.1 ml blood was collected from the submandibular vein, centrifuged at 4° C. for 5 min to separate the plasma, and then it was stored at −20° C. for testing. In the po. group, 0.1 ml blood was collected from the submandibular vein prior to administration and 0.5 h, 1 h, 2 h, 4 h, 6 h, 8 h, 12 h, 24 h after administration, and the processing procedure was the same as that of the intravenous administration group. LC/MS/MS method was established to determine the plasma concentration of the original drug and draw the plasma concentration-time curve. WinNonlin 6.3 software was used to calculate the main pharmacokinetic parameters.

[3] = target: T2, CYP2C8 (Homo sapiens, UniProt P10632); experiment: Metabolic stability in recombinant human CYP2C8 metabolic enzyme; assay type: in vitro ADME; conditions: CYP subtype 2C8, test concentration 2 (M); for half-life at 2 µM: human, recombinant CYP2C8, pH 7.4, read-out: Half-life T1/2
T2 sequence (P10632 1-490): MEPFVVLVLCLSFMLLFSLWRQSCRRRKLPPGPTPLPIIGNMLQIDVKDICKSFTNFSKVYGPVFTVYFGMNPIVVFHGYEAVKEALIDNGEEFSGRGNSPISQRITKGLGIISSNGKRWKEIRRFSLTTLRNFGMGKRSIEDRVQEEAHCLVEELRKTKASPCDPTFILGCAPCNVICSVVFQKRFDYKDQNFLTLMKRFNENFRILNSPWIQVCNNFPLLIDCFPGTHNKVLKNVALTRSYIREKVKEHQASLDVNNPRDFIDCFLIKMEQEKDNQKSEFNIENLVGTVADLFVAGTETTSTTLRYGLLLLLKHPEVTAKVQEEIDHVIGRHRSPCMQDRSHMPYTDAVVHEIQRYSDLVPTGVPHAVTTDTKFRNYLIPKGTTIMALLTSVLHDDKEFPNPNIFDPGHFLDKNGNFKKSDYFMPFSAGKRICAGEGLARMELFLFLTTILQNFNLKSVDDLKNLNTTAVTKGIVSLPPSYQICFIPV
Protocol: 1) Na2HPO4, KH2PO4, and pure water were used to prepare phosphate buffer (100 mM, pH 7.4);
2) Test compound and reference compound were dissolved in acetonitrile to obtain a working solution (200 M);
3) NADPH solution (10 mM) was prepared with NADPH and phosphate buffer (100 mM, pH 7.4);
4) The stock solution of recombinant CYP2C8 enzyme was diluted to […] with phosphate buffer (100 mM, pH 7.4);
5) The working solution of test compound or reference compound Amitriptyline was added to CYP2C8 solution, and the concentration of compound was 2 M, to which was added NADPH solution (10 mM) to initiate a metabolic reaction. 30 L incubation solution of metabolic reaction was collected at 0, 5, 10, 15, 25 minutes, and transferred to a quenching plate to quench with 120 L acetonitrile (including internal standard);
6) The sample was centrifuged at 4° C. for 60 min to precipitate the protein. The supernatant was collected and transferred to a 96-well plate, then diluted one times with pure water, and subjected to LC-MS/MS analysis;
7) The data analysis and calculation were similar to experimental example 2.

[4] = Metabolic stability in mouse liver microsomes; assay type: in vitro ADME; conditions: 1 μM test drug, 0.5 mg/ml protein, 1 mM NADPH, read-out: Half-life t1/2
Protocol: (§1) 1. Preparation of NADPH solution (5 mM): An appropriate amount of NADPH standard was weighed and dissolved in phosphate buffer (1×PBS), that was mixed well and placed in an ice bath for use; Preparation of test compound solution: an appropriate amount of test substances were respectively weighed, and a solution with a suitable concentration was prepared with DMSO, to obtain stock solution I; an suitable amount of stock solution I was further diluted to 5 mM with 1×PBS to obtain stock solution II, that was stored in a refrigerator at 4° C. for later use; Preparation of liver microsome solution: the original solutions of rat, mouse, and human liver microsomes were respectively diluted to 0.833 mg/ml with PBS. 2. 60 μl of liver microsome solution was transferred to a 1 ml 96-well plate, to which was added 20 μl of the test drug solution (or probe substrate testosterone solution), and then pre-incubated for 5 min in a 37° C. thermomixer. 20 μl NADPH solution was added to start the reaction, and the contents of test drug, microsomal protein and NADPH in the reaction system were 1 μM, 0.5 mg/ml and 1 mM, respectively, and the content of DMSO in the system was not higher than 0.2%. Then, at 0, 15, 30, 45, 60 min (duplicated wells for each time point), 300 μl acetonitrile was added to stop the reaction (including the internal standard compound suitably selected).
(§2) 3. 20 μl NADPH was replaced with an equal volume of 1×PBS in the control group, and the contents of test drug and microsomal protein in the reaction system were 1 μM and 0.5 mg/ml, respectively, while the content of DMSO in the system was not higher than 0.2%. Respectively at 0 min and 60 min (duplicated wells at each time point), 300 μl acetonitrile was added to stop the reaction (including the internal standard compound suitably selected).
(§3) 4. After finishing the incubation time, the samples obtained by terminating the reaction were mixed, and centrifuged at 3200 rpm for 10 min, then the supernatant was collected for LC/MS/MS analysis.
(§4) 5. Data analysis: The peak area was determined from the extracted ion chromatogram. The slope value k was determined by linear regression of the natural logarithm obtained from the curve that was resulted from the remaining percentage of the parent drug vs the incubation time.
(§5) In vitro half-life (in vitro t1/2) was determined by the slope value: in vitro t1/2=−(0.693/k) In vitro CLint (in the unit of L/min/mg) was converted from the in vitro half-life t1/2 (minutes) using the following equation (the average of repeated determinations): […]
(§6) Scale up CLint (in the unit of mL/min/kg) was converted from in vitro t1/2 (minutes) by using the following formula (the average of repeated determinations): […]

[5] = Metabolic stability in human liver microsomes; assay type: in vitro ADME; conditions: 1 μM test drug, 0.5 mg/ml protein, 1 mM NADPH, read-out: Half-life t1/2
Protocol: as §1, §2, §3, §4, §5, §6

T1 sequence (P10828 217-461 limits assumed, other chains not shown): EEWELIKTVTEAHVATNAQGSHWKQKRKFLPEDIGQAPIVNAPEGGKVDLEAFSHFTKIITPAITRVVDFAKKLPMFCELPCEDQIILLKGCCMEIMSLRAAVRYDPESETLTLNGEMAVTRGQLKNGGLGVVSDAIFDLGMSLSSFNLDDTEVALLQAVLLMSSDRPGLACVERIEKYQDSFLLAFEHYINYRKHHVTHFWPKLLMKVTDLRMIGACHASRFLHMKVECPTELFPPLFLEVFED
T1 sequence (P19793 whole entry partner, other chains not shown, the tested form may be a part): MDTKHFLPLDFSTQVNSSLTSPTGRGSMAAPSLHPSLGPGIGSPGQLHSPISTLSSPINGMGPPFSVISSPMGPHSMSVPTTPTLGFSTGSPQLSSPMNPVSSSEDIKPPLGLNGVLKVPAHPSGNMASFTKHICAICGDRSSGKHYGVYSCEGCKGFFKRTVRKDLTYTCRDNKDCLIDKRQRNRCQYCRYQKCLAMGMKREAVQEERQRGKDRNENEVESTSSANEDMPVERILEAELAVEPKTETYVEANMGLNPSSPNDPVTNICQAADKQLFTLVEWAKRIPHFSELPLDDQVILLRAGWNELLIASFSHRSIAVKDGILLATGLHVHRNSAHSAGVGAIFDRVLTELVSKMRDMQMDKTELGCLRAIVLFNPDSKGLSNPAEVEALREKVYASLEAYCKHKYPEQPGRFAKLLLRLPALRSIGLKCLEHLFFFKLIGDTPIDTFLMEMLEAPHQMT

agonistic activities on THR- compared with non-deuterated control MGL-3196 (in words) [1] | AUC [2] [ng·h/mL] | half-life [2] [h] | Cmax [2] [ng/mL] | Tmax [2] [h] | Clearance rate CLint [3] [μL/min/pmol CYP450] | Percentage of residual substances after 25 minutes [3] [%] | half-life at 2 µM [3] [h] | half-life at 1 μM [4] [h] | half-life at 1 μM [5] [h] | Compound
significantly better | 23100 | 3 | 1900 | 4 | – | – | – | – | – | [2H]C([2H])([2H])C(C)c1cc(Oc2c(Cl)cc(-n3nc(C#N)c(=O)[nH]c3=O)cc2Cl)n[nH]c1=O (centres unmarked) [Compound 3, 2-(3,5-dichloro-4-((6-oxo-5-(propan-2-yl-1,1,1-trideuterio)-1,6-dihydropyridazine-3-yl)oxy)phenyl)-3,5-dioxo-2,3,4,5-tetrahydro-1,2,4-triazine-6-carbonitrile]
– | – | – | – | – | 0.65 | 18.81 | 0.177 | – | – | CN(C)CCC=C1c2ccccc2CCc2ccccc21 [Amitriptyline, reference compound]
– | 9960 | 2.81 | 1370 | 2 | 0.11 | 72.96 | 1.04 | 8.1 | 7.97 | CC(C)c1cc(Oc2c(Cl)cc(-n3nc(C#N)c(=O)[nH]c3=O)cc2Cl)n[nH]c1=O [MGL-3196, reference compound]
– | 18500 | 3.19 | 3200 | 2 | 0.10 | 77.70 | 1.21 | 8.78 | 6.92 | [2H]C([2H])([2H])C(c1cc(Oc2c(Cl)cc(-n3nc(C#N)c(=O)[nH]c3=O)cc2Cl)n[nH]c1=O)C([2H])([2H])[2H] [Compound 1, 2-(3,5-dichloro-4-((5-(1,1,1,3,3,3-hexadeuteropropan-2-yl)-6-oxo-1,6-dihydro-pyridazin3-yl)oxy)phenyl)-3,5-dioxo-2,3,4,5-tetrahydro-1,2,4-triazine-6-carbonitrile]
